Source: patent US7842488B2, “Polynucleotides encoding a human 3-phosphoinositide- dependent protein kinase” (Medical Research Council, priority 1997, dated 2010)

Assays:
PDK1 [1] = assay: PDK1 assay: activation of GST-PKBα by purified PDK1 with phospholipid vesicles; format: biochemical, rabbit; details: lipid 10 μM in vesicles of 100 μM PtdCho, 100 μM PtdSer, 30 min at 30° C.
Procedure: Assay of PDK1. The assay was carried out in two stages; in the first, GST-PKBα was incubated with PDK1 in the presence of MgATP and phospholipid vesicles to permit activation of GST-PKBα.
After 10 min at 30° C., the reactions were terminated by spotting the reaction mixture on to p81 phosphocellulose paper. The papers were washed in phosphoric acid and analysed as described previously. […] The basal GST-PKBα activity is the activity measured in the absence of PDK1.

PDK1 [2] = assay: Phosphorylation of GST-PKBα by PDK1 with [γ32P]ATP; format: biochemical, rabbit; details: lipid 10 μM in PtdCho/PtdSer vesicles
Procedure: Solutions were stored at 4° C. at concentrations 10-fold higher than those required in the assay and used within 2-4 days.
Phosphorylation of GST-PKB ? by PDK1. The incubations were identical to the Stage 1 described above except that [γ^32P] ATP (200-400 cpm/pmol) was used instead of unlabelled ATP. The reactions were terminated by making the solution 1% (by mass) in SDS. […] The Coomassie blue-staining bands corresponding to GST-PKBα were excised and the ^32P-radioactivity associated with each band was quantified.

GST-PDK1 = biological target: T1, GST-PDK1 (Homo sapiens, UniProt O15530); assay: GST-PDK1 assay: activation and phosphorylation of GST-PKBα; format: biochemical; details: lipid 10 μM in PtdCho/PtdSer vesicles
T1 construct: Residues 52-556 of PDK1 were expressed in human embryonic kidney 293 cells; made in house; host or cells: human embryonic kidney 293 cells (pEBG2T)
T1 sequence (O15530 52-556): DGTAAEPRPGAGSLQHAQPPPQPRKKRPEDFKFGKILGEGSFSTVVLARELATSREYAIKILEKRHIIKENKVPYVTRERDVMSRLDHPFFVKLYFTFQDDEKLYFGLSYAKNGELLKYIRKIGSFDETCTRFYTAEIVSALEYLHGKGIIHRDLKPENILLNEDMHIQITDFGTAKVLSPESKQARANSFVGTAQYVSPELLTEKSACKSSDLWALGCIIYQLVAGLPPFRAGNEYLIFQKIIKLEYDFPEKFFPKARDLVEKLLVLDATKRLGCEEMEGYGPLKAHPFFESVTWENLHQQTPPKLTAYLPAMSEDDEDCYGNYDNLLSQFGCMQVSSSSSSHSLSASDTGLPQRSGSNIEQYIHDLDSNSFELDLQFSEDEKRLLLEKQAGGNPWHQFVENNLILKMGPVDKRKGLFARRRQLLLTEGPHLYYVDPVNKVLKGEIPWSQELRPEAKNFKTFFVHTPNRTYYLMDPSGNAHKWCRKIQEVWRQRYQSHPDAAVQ
Procedure: (§1) FIG. 12. […] In panels A and C, the assays were terminated by making the incubations 1% (by vol) in TRITON X-100™ (see Ref 21), and the increase in specific activity of GST-PKBα was determined. In panels B and D, the reactions were terminated by making the solutions 1% in SDS, the samples were subjected to SDS/polyacrylamide gel electrophoresis, and the phosphorylation was assessed by autoradiography of the Coomassie blue-stained band corresponding to GST-PKBα.
(§2) One unit of PDK1 activity was defined as that amount required to increase the basal activity of GST-PKBα by 1 unit of activity in one min.

GST-DSTPK61 = biological target: T2, GST-DSTPK61 (Drosophila melanogaster, UniProt Q9W0V1); assay: GST-DSTPK61 assay: activation and phosphorylation of GST-PKBα; format: biochemical; details: lipid 10 μM in PtdCho/PtdSer vesicles
T2 construct: residues 1-752 of DSTPK61 in E. coli as fusion proteins; made in house; host or cells: E. coli (pGEX-3X)
T2 sequence (Q9W0V1 85-836 Q200H/Q201E/Q317A/G443R): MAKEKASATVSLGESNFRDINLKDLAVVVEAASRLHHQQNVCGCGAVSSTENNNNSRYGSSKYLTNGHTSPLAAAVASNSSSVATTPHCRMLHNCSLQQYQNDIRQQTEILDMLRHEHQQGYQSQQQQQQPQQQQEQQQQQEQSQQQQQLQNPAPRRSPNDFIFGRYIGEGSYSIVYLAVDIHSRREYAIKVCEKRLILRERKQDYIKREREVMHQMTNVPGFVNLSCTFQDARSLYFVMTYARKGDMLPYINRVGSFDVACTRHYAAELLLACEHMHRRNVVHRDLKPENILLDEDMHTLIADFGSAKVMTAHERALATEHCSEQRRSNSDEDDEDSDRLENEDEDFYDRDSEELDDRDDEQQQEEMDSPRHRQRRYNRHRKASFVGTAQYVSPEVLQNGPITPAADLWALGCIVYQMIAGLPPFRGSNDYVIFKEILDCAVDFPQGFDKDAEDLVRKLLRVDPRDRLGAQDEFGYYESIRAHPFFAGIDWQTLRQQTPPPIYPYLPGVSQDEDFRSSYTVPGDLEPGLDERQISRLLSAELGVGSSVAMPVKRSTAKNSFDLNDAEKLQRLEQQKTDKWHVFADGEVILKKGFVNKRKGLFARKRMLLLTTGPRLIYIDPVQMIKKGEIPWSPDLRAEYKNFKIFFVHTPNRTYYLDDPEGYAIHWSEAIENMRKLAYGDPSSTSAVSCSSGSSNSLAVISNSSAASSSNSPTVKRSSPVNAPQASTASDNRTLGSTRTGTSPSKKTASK
Procedure: as §1, §2

HA-PKBα [3] = assay: HA-PKBα activity in transfected 293 cells; format: cell-based, human
Procedure: FIG. 14. PKBα is activated by cotransfection with PDK1 in 293 cells. (A) 293 cells were transiently transfected with DNA constructs expressing either HA-PKBα or both HA-PKBα and Myc-PDK1. The cells were then stimulated for 10 min with or without 50 ng/ml IGF1, the HA-PKBα immunoprecipitated from the lysates and assayed. The results are expressed relative to the specific activity of wild type HA-PKBα in unstimulated 293 cells ([…]). No PKBα activity was detected in mock transfections in which the cells were transfected with PCMV5 vector alone (data not shown). (B) 6 μg of protein from each lysate was electrophoresed on a 10% SDS/polyacrylamide gel and immunoblotted using either a monoclonal HA-antibody to detect HA-PKBα or a monoclonal Myc-antibody to detect Myc-PDK1. The molecular mass markers are glycogen phosphorylase (97 kDa), bovine serum albumin (67 kDa) and ovalbumin (43 kDa).
Transfection of 293 cells with HA-tagged PBKα and Myc-PDK1. Human embryonic kidney 293 cells were cultured on 10 cm diameter dishes and transfected with 2 μg/ml pCMV5 DNA constructs encoding for HA-PKBα or HA-PKBα plus Myc-PDK1 [20]. After 24 h the cells were deprived of serum for a further 16 h and then stimulated for 10 min with either […] IGF1 or Buffer. The cells were lysed in 1.0 ml of ice-cold Buffer A, the lysate centrifuged at 4° C. for 10 min at 13,000×g and HA-PKBα immunoprecipitated from aliquots of the supernatant (10 μg protein) and assayed for PKBα with the peptide RPRAATF (SEQ ID NO: 9) as described previously.

HA-PKBα [4] = assay: 32P-labelling of transfected 293 cells: phosphorylation sites of HA-PKBα; format: cell-based, human; details: unstimulated 293 cells
Procedure: FIG. 15. Overexpression of PDK1 in cells induces phosphorylation of PKBα at Thr308. 293 cells transiently transfected with either wild type HA-PKBα (panels A and C) or HA-PKBα and Myc-PDK1 (panels B and D) were incubated with ^32P-orthophosphate, then treated for 10 min without (panels A and B) or with (panels C and D) 50 ng/ml IGF1. The ^32P-labelled HA-PKBα was immunoprecipitated from the lysates, treated with 4-vinylpyridine, and electrophoresed on 1 10% polyacrylamide gel. The HA-PKBα was excised from the gel, digested with trypsin and chromatographed on a C18 column (see legend to FIG. 13) to resolve the four major phosphopeptides which are phosphorylated at Ser-124, Ser473, Thr308 and Thr450 respectively. The identity of each phosphopeptide was established by phospho-amino acid analysis and solid phase sequencing. Similar results were obtained in two separate experiments for (panels A and C), and in three separate experiments (panels B and D).
^32P-labelling of 293 cells transfected with HA-PKBα or Myc-PDK1. This was carried out essentially as described previously. Briefly, 293 cells were transfected with HA-PKBα, or with HA-PKBα plus Myc-PDK1, washed with phosphate free DMEM, incubated for 4 h with [^32P]-orthophosphate (1 mCi/ml), then stimulated with IGF1 (50 ng/ml) for 5 min. The cells were lysed, and the HA-PKBα immunoprecipitated (using 10 μg of 12CAS antibody per 10 cm dish of cells) or the Myc-PDK1 immunoprecipitated (using 10 μg of 9E10 antibody per 10 cm dish of cells). The immunoprecipitated protein was alkylated with 4-vinylpyridine, subjected to SDS/polyacrylamide gel electrophoresis, digested with trypsin and analysed by chromatography on a C18 column (Alessi et al (1996) EMBO J. 15, 6541-6551).

CCCCCCCCCCCCCCCC(=O)OC[C@H](COP(=O)(O)OC1C(O)C(O)C(O)C(OP(=O)(O)O)C1O)OC(=O)CCCCCCCCCCCCCCC (stereo partly shown) [Lipid 11, sn-1,2 di-palmitoyl PtdIns-3P]
activation of PDK1 (in words) (PDK1 [1]): no significant activation | activation of PDK1 (in words) (PDK1 [1]; listed as PtdIns(3)P): did not activate PDK1 at all | activation of PDK1 (in words) (PDK1 [1]; listed as lipid 11): did not activate PDK1 | phosphorylation of GST-PKBα by PDK1 (in words) (PDK1 [2]): did not activate PDK1 or induce the phosphorylation | activation and phosphorylation of GST-PKBα by GST-PDK1 (in words) (GST-PDK1): no activation or phosphorylation | activation and phosphorylation of GST-PKBα by GST-DSTPK61 (in words) (GST-DSTPK61): no activation or phosphorylation

B1: Myc-PDK1: Myc-epitope tagged PDK1 transfected into 293 cells (protein)
chain: T1 sequence (O15530 52-556)
modifications: left off: small tags and cut ends
fold increase of HA-PKBα activity on cotransfection (HA-PKBα [3]; unstimulated 293 cells): 20 fold | phosphorylation of HA-PKBα at Thr308 relative to IGF1-stimulated cells transfected with HA-PKBα alone (HA-PKBα [4]; cotransfection): 70% | phosphorylation of HA-PKBα at Ser473 on cotransfection (in words) (HA-PKBα [4]): did not induce phosphorylation of HA-PKBα at Ser473

B2: Myc-D223A-PDK1: catalytically inactive mutant of PDK1, Myc-tagged (protein)
chain: MARTTSQLYDAVPIQSSVVLCSCPSPSMVRTQTESSTPPGIPGGSRQGPAMDGTAAEPRPGAGSLQHAQPPPQPRKKRPEDFKFGKILGEGSFSTVVLARELATSREYAIKILEKRHIIKENKVPYVTRERDVMSRLDHPFFVKLYFTFQDDEKLYFGLSYAKNGELLKYIRKIGSFDETCTRFYTAEIVSALEYLHGKGIIHRDLKPENILLNEDMHIQITAFGTAKVLSPESKQARANSFVGTAQYVSPELLTEKSACKSSDLWALGCIIYQLVAGLPPFRAGNEYLIFQKIIKLEYDFPEKFFPKARDLVEKLLVLDATKRLGCEEMEGYGPLKAHPFFESVTWENLHQQTPPKLTAYLPAMSEDDEDCYGNYDNLLSQFGCMQVSSSSSSHSLSASDTGLPQRSGSNIEQYIHDLDSNSFELDLQFSEDEKRLLLEKQAGGNPWHQFVENNLILKMGPVDKRKGLFARRRQLLLTEGPHLYYVDPVNKVLKGEIPWSQELRPEAKNFKTFFVHTPNRTYYLMDPSGNAHKWCRKIQEVWRQRYQSHPDAAVQ
modifications: left off: small tags and cut ends
activation of HA-PKBα on cotransfection (in words) (HA-PKBα [3]; 293 cells): not activated significantly
